Test system: Epidermoid carcinoma cell line
Test: Concentration required for inhibition of colony formation (cytotoxicity) against human epidermoid carcinoma cell number 2
Type: functional
Conditions: read-out: ED50 (the source's name)

Compound	EC50
Nc1nc(O)c2nc(CNc3ccc(C(=O)NC(CCC(=O)O)C(=O)O)cc3)ccc2n1 (configuration not stated)	23 µM
Nc1nc(O)c2nc(C(=O)Nc3ccc(C(=O)NC(CCC(=O)O)C(=O)O)cc3)ccc2n1 (configuration not stated)	100 µM
Nc1nc(O)c2c(n1)CCC(CN(C=O)c1ccc(C(=O)NC(CCC(=O)O)C(=O)O)cc1)N2 (configuration not stated)	28 µM
Nc1nc(O)c2nc(CN(C=O)c3ccc(C(=O)NC(CCC(=O)O)C(=O)O)cc3)ccc2n1 (configuration not stated)	32 µM
Nc1nc(O)c2c(n1)CCC1CN(c3ccc(C(=O)NC(CCC(=O)O)C(=O)O)cc3)C=[N+]21 (configuration not stated)	8 µM
CN(Cc1cnc2nc(N)nc(N)c2n1)c1ccc(C(=O)N[C@@H](CCC(=O)O)C(=O)O)cc1 [METHOTREXATE]	0.001 µM

Target: T1, Dihydrofolate reductase (Bos taurus) (UniProt P00376)
T1 sequence (whole entry): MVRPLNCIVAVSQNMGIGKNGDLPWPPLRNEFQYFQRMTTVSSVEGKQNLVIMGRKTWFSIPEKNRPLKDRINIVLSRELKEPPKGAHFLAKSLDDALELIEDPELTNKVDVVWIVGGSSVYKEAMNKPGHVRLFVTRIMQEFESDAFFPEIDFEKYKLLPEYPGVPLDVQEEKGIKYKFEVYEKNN
Conditions: not given

Compound	ID50
Nc1nc(O)c2c(n1)CCC1CN(c3ccc(C(=O)NC(CCC(=O)O)C(=O)O)cc3)C=[N+]21 (configuration not stated)	4.6 µM

From ChEMBL document CHEMBL1121734, “New synthesis of N-[4-[[(2-amino-4(3H)-oxopyrido[3,2-d]pyrimidin-6-yl)methyl]amino]benzoyl]-L-glutamic acid (8-deazafolic acid) and the preparation of some 5,6,7,8-tetrahydro derivatives” (1981)
